Residues, ends and D or L forms follow the SMILES beside them.
What was measured:
human NMUR2 receptor [1] = biological target: T1, human NMUR2 receptor (Homo sapiens, UniProt Q9GZQ4); test: IP1 Gq HTRF assay, activation of human NMUR2 in buffer; format: cell-based; parameters: expressed in transfected cells; host or cells: CHO-K1; details: for EC50: CHO-K1 cells expressing human NMUR2, stimulation buffer with 0.1% BSA, read-out: EC50 (hNMUR2) buffer; for EC50 (hNMUR1)/EC50 (hNMUR2): selectivity for NMUR2 over NMUR1 from IP1 assay in buffer (Example 3)
T1 sequence (Q9GZQ4 whole entry): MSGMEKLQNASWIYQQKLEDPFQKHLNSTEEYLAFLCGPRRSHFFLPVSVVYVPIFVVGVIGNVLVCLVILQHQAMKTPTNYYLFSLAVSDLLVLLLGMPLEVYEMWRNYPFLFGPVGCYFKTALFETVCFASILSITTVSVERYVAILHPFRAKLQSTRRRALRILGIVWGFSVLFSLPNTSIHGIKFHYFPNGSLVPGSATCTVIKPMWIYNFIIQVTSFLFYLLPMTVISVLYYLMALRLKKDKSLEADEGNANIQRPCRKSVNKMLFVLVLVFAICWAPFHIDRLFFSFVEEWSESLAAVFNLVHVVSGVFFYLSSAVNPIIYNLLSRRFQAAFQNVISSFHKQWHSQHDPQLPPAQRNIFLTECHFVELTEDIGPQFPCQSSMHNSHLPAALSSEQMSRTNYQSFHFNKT
Outline: (§1)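 CHO-K1 cells stably expressing human NMUR1 or NMUR2, seeded 24 h before assay, stimulated with peptide agonists (8-point dose-response, 1% DMSO final) in HEPES/HBSS buffer with 50 mM LiCl and 0.1% BSA, pH 7.4, 1 h at 37 °C. IP1 accumulation read by HTRF competition (665/620 nm); EC50 from 4-parameter sigmoidal fit.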

human NMUR2 receptor [2] = biological target: T1, human NMUR2 receptor; test: Radioligand binding competition assay (RLB), human NMUR2 receptor binding (SPA, [125I]-Neuromedin U-25); parameters: host or cells: CHO-K1; details: CHO-K1 hNMUR2 cell membranes, 4 hours at RT
Text: Example 1: Radioligand Binding Competition Assay (RLB) Human NMUR2 Receptor Binding
The test is based on membranes prepared from a Human NMUR2/Apoaequorin Stable Cell Line (Creative Biogene, Cat. No. CSC-RG1309).
Cell Line Description: CHO-NMUR2 cell line is clonally derived from a CHO-K1 cell line, which has been transfected with a bicistronic expression plasmid containing the sequence coding for the human neuromedin U receptor 2 (AF242874.1). MOSAIC-ID: CL16550616.
Membrane preparation: Cells were broken by nitrogen cavitation (900 psi, 1 hour). Intact cells were removed by centrifugation (400 rcf (relative centrifugal force), 10 minutes, 4° C.) before the crude membrane fraction was collected by ultracentrifugation (20.000 rcf, 1 hour, 4° C.).
2) Human NMUR2 Receptor Binding Assay (Radioligand: [125I]-Neuromedin U-25 (Human))
In this Scintillation Proximity Assay (SPA) design, the membranes immobilize directly to the PVT-WGA-PEI type A beads (polyethyleneimine treated polyvinyltoluene beads coupled to wheatgerm agglutinin, Perkin Elmer) via interactions of wheat germ agglutinate and glycosylated membrane structures. Thereby the radioactively la-belled ligand, bound to NMUR2 receptors on the membrane, comes in close proximity to the solid scintillator of the PVT bead. Radioactive human neuromedin U-25 then stimulates the scintillant to emit light. In contrast, radioligand not bound to the receptor is too distant from the bead to elicit a signal.
For the Scintillation Proximity Assay the CHO-K1 hNMUR2 cell membranes and SPA-beads are diluted to concentrations, which assure a robust signal to background ratio. The SPA incubation buffer consists of 25 mM Hepes (pH=7.0), 5 mM MgCl2, 1 mM CaCl2, 10 ug/mL Saponine and 0.1% bovine serum albumin and is used for all dilutions.
Final assay setup in 96-well plate: 20 μL of 10× test compound dilutions+40 μL of 5× [125l]-Neuromedin U-25 (1× approx. 30 pM; 2000 μCi/mmol)+60 μL membrane dilution (approx. 2.5 μg membrane protein)+80 μL SPA bead dilution (0.75 mg).
The assay is incubated for 4 hours at RT, including controls for specific binding where no displacer is added and non-specific binding by adding unlabeled hNMU-25 at 100 nM. Bound radioactivity is determined by scintillation counting (MicroBeta Trilux 1450, Perkin Elmer, detection of 125I decay). […] The system assumes one binding site with no relevant radioligand depletion (<10%) and that the binding is reversible and at equilibrium.

human NMUR1 receptor = biological target: T2, human NMUR1 receptor (Homo sapiens, UniProt Q9HB89); test: IP1 Gq HTRF assay, activation of human NMUR1 in buffer; format: cell-based; details: CHO-K1 cells expressing human NMUR1, stimulation buffer with 0.1% BSA; read-out: EC50 (hNMUR1) buffer
T2 construct: expressed in transfected cells; host or cells: CHO-K1
T2 sequence (Q9HB89 1-426): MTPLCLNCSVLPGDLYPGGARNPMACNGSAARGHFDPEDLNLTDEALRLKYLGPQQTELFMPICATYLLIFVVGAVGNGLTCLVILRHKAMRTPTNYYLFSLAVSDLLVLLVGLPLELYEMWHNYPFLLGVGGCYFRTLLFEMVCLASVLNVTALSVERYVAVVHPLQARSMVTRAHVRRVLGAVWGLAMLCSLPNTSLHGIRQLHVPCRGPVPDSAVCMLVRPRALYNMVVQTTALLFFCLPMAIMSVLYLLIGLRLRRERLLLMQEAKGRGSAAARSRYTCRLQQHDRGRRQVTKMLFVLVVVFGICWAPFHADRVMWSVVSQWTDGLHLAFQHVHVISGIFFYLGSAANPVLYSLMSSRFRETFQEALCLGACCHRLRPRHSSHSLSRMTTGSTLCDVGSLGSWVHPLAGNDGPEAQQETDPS
Outline: as §1

SMILES | EC50 (human NMUR2 receptor [1]) | EC50 (hNMUR1)/EC50 (hNMUR2) (human NMUR2 receptor [1]) | Ki (human NMUR2 receptor [2]) | EC50 (human NMUR1 receptor)
CCCC[C@H](NC(=O)[C@H](CC(C)C)N(C)C(=O)[C@H](Cc1ccccc1)NC(=O)[C@H](Cc1ccc(O)cc1)NC(=O)CN1CCN(CCNC(=O)CN(C)C(=O)CN(C)C(=O)CN(C)C(=O)CN(C)C(=O)CN(C)C(=O)CN(C)C(=O)CN(C)C(=O)CN(C)C(=O)CN(C)C(=O)CN(C)C(=O)CN(C)C(=O)CN(C)C(=O)CN(C)C(=O)CN(C)C(=O)CN(C)C(=O)CC[C@H](NC(=O)CC[C@H](NC(=O)CC[C@H](NC(=O)CCCCCCCCCCCCCCCCCCC(=O)O)C(=O)O)C(=O)O)C(=O)O)CC1)C(=O)N[C@@H](CCCN)C(=O)N1CCC[C@H]1C(=O)N[C@@H](CCCNC(=N)N)C(=O)NCC(N)=O [Compound 1, C20DA-gGlu3-Sar15-AEPipAc-Tyr-Phe-NMeLeu-Nle-Orn-Pro-Arg-Gly-NH2] (HELM PEPTIDE1{[O=C(O)CCCCCCCCCCCCCCCCCCC(=O)[*:2]].[gGlu].[gGlu].[gGlu].[Sar].[Sar].[Sar].[Sar].[Sar].[Sar].[Sar].[Sar].[Sar].[Sar].[Sar].[Sar].[Sar].[Sar].[Sar].[O=C(CN1CCN(CCN[*:1])CC1)[*:2]].Y.F.[meL].[Nle].[Orn].P.R.G.[am]}$$$$V2.0) | 1.4 nM | 635 | 8.6 nM | 890 nM
CCCC[C@H](NC(=O)[C@H](CC(C)C)N(C)C(=O)[C@H](Cc1ccccc1)NC(=O)[C@H](Cc1ccc(O)cc1)NC(=O)CN1CCN(CCNC(=O)CN(C)C(=O)CN(C)C(=O)CN(C)C(=O)CN(C)C(=O)CN(C)C(=O)CN(C)C(=O)CN(C)C(=O)CN(C)C(=O)CN(C)C(=O)CN(C)C(=O)CN(C)C(=O)CN(C)C(=O)CC[C@H](NC(=O)CC[C@H](NC(=O)CC[C@H](NC(=O)CCCCCCCCCCCCCCCCCCC(=O)O)C(=O)O)C(=O)O)C(=O)O)CC1)C(=O)N[C@@H](CCCNC(=N)N)C(=O)N1CCC[C@H]1C(=O)N[C@@H](CCCNC(=N)N)C(=O)NCC(N)=O [Compound 6, C20DA-gGlu3-Sar12-AEPipAc-Tyr-Phe-NMeLeu-Nle-Arg-Pro-Arg-Gly-NH2] | 2 nM | – | 10.1 nM | 120 nM
CCCC[C@H](NC(=O)[C@H](CC(C)C)N(C)C(=O)[C@H](Cc1ccccc1)NC(=O)[C@H](Cc1ccc(O)cc1)NC(=O)CN1CCN(CCNC(=O)CN(C)C(=O)CN(C)C(=O)CN(C)C(=O)CN(C)C(=O)CN(C)C(=O)CN(C)C(=O)CN(C)C(=O)CN(C)C(=O)CN(C)C(=O)CN(C)C(=O)CN(C)C(=O)CN(C)C(=O)CN(C)C(=O)CN(C)C(=O)CN(C)C(=O)CC[C@H](NC(=O)CC[C@H](NC(=O)CC[C@H](NC(=O)CCCCCCCCCCCCCCCCC(=O)O)C(=O)O)C(=O)O)C(=O)O)CC1)C(=O)N[C@@H](CCCNC(=N)N)C(=O)N1CCC[C@H]1C(=O)N[C@@H](CCCNC(=N)N)C(=O)NCC(N)=O [Compound 7, C18DA-gGlu3-Sar15-AEPipAc-Tyr-Phe-NMeLeu-Nle-Arg-Pro-Arg-Gly-NH2] (HELM PEPTIDE1{[O=C(O)CCCCCCCCCCCCCCCCC(=O)[*:2]].[gGlu].[gGlu].[gGlu].[Sar].[Sar].[Sar].[Sar].[Sar].[Sar].[Sar].[Sar].[Sar].[Sar].[Sar].[Sar].[Sar].[Sar].[Sar].[O=C(CN1CCN(CCN[*:1])CC1)[*:2]].Y.F.[meL].[Nle].R.P.R.G.[am]}$$$$V2.0) | 1.2 nM | 208 | 22.8 nM | 250 nM
CCCC[C@H](NC(=O)[C@H](CC(C)C)N(C)C(=O)[C@H](Cc1ccccc1)NC(=O)[C@H](Cc1ccc(O)cc1)NC(=O)CN1CCN(CCNC(=O)CN(C)C(=O)CN(C)C(=O)CN(C)C(=O)CN(C)C(=O)CN(C)C(=O)CN(C)C(=O)CN(C)C(=O)CN(C)C(=O)CN(C)C(=O)CN(C)C(=O)CN(C)C(=O)CN(C)C(=O)CC[C@H](NC(=O)CC[C@H](NC(=O)CC[C@H](NC(=O)CCCCCCCCCCCCCCCCCCC(=O)O)C(=O)O)C(=O)O)C(=O)O)CC1)C(=O)N[C@@H](CCN)C(=O)N1CCC[C@H]1C(=O)N[C@@H](CCCNC(=N)N)C(=O)NCC(N)=O [Compound 8, C20DA-gGlu3-Sar12-AEPipAc-Tyr-Phe-NMeLeu-Nle-Dbu-Pro-Arg-Gly-NH2] | 3.1 nM | – | 89.1 nM | 1000 nM
CCCC[C@H](NC(=O)[C@H](CC(C)C)N(C)C(=O)[C@H](Cc1ccccc1)NC(=O)[C@H](Cc1ccc(O)cc1)NC(=O)CN1CCN(CCNC(=O)CN(C)C(=O)CN(C)C(=O)CN(C)C(=O)CN(C)C(=O)CN(C)C(=O)CN(C)C(=O)CN(C)C(=O)CN(C)C(=O)CN(C)C(=O)CN(C)C(=O)CN(C)C(=O)CN(C)C(=O)CN(C)C(=O)CN(C)C(=O)CN(C)C(=O)CC[C@H](NC(=O)CC[C@H](NC(=O)CC[C@H](NC(=O)CCCCCCCCCCCCCCCCCCC(=O)O)C(=O)O)C(=O)O)C(=O)O)CC1)C(=O)N[C@@H](CCCNC(=N)N)C(=O)N1CCC[C@H]1C(=O)N[C@@H](CCCNC(=N)N)C(=O)NCC(N)=O [Compound 9, C20DA-gGlu3-Sar15-AEPipAc-Tyr-Phe-NMeLeu-Nle-Arg-Pro-Arg-Gly-NH2] (HELM PEPTIDE1{[O=C(O)CCCCCCCCCCCCCCCCCCC(=O)[*:2]].[gGlu].[gGlu].[gGlu].[Sar].[Sar].[Sar].[Sar].[Sar].[Sar].[Sar].[Sar].[Sar].[Sar].[Sar].[Sar].[Sar].[Sar].[Sar].[O=C(CN1CCN(CCN[*:1])CC1)[*:2]].Y.F.[meL].[Nle].R.P.R.G.[am]}$$$$V2.0) | 2.8 nM | – | 58.3 nM | 220 nM
CCCC[C@H](NC(=O)[C@H](CC(C)C)N(C)C(=O)[C@H](Cc1ccccc1)NC(=O)[C@H](Cc1ccc(O)cc1)NC(=O)CN1CCN(CCNC(=O)CN(C)C(=O)CN(C)C(=O)CN(C)C(=O)CN(C)C(=O)CN(C)C(=O)CN(C)C(=O)CN(C)C(=O)CN(C)C(=O)CN(C)C(=O)CN(C)C(=O)CN(C)C(=O)CN(C)C(=O)CN(C)C(=O)CN(C)C(=O)CN(C)C(=O)CC[C@H](NC(=O)CC[C@H](NC(=O)CC[C@H](NC(=O)CCCCCCCCCCCCCCCCCCC(=O)O)C(=O)O)C(=O)O)C(=O)O)CC1)C(=O)N[C@@H](CCCNC(=N)N)C(=O)N(C)[C@@H](C)C(=O)N[C@@H](CCCNC(=N)N)C(=O)NCC(N)=O [Compound 10, C20DA-gGlu3-Sar15-AEPipAc-Tyr-Phe-NMeLeu-Nle-Arg-NMeAla-Arg-Gly-NH2] (HELM PEPTIDE1{[O=C(O)CCCCCCCCCCCCCCCCCCC(=O)[*:2]].[gGlu].[gGlu].[gGlu].[Sar].[Sar].[Sar].[Sar].[Sar].[Sar].[Sar].[Sar].[Sar].[Sar].[Sar].[Sar].[Sar].[Sar].[Sar].[O=C(CN1CCN(CCN[*:1])CC1)[*:2]].Y.F.[meL].[Nle].R.[meA].R.G.[am]}$$$$V2.0) | 4.1 nM | – | 204 nM | 720 nM
